Where two headings read alike, the source gives them in different places.
How the values were obtained:
HBMEC monolayer = details: for Detection / transport to lower compartment (brain side) of HBMEC-BBB model: ASFE extract
Experimental: The cell line HBMEC was used as a simplified in vitro model of the BBB endothelium. […] Endothelial cell cultures were maintained at 37 °C in a humid atmosphere enriched with 5% CO2. In our studies, HBMEC were used between passage 25 and 29. For experiments, HBMECs were seeded using a volume of 200 µL at a density of 8 × 10^4 cells/mL in rat tail collagen-I (100 µg/mL) coated 96-well plates (for viability assay) or 500 µL at a density of 1.6 × 10^5 cells/mL in rat tail collagen-I (100 µg/mL) coated semi-permeable membranes in transwell inserts (0.4 µm pore, Corning Costar Corp., USA; for BBB integrity and transport assays) for 12-well plates. The incubation timepoints were assay dependent.
For the transendothelial transport assays, HBMEC were seeded on transwell inserts as described above and are schematically depicted in Figure 1a. After seeding, the media were changed every two days. Four days post-seeding, the HBMEC monolayer was formed, and the transport studies were performed. […] Vupper and Vlower is the upper and lower compartment volume (0.5 and 1.5 mL, respectively). The culture inserts were used for the subsequent integrity permeability studies.

[1] = cited from earlier work
[2] = matrix ASFE extract 24 µg/mL, 2 h incubation, n.d = not detected in lower compartment
[3] = matrix ASFE extract 24 µg/mL, 4 h incubation, n.d = not detected in lower compartment

## C=C(C)[C@@H]1CC[C@]2(C)CC[C@]3(C)[C@H](CC[C@@H]4[C@@]5(C)CC[C@H](OC(C)=O)C(C)(C)[C@@H]5CC[C@]43C)[C@@H]12 [Lupeol acetate]
HBMEC monolayer; OL-SS extract
  Detection in basolateral compartment (brain side) of HBMEC-BBB model: not detected
[1]; OL-SS extract compounds
  Detection in the PAMPA-BBB model: not detected

## Oc1cc(O)c2c(c1)O[C@H](c1ccc(O)c(O)c1)[C@H](O)[C@H]2c1c(O)cc(O)c2c1O[C@H](c1ccc(O)c(O)c1)[C@H](O)C2 [Procyanidin B2]
HBMEC monolayer
  Detection / transport to lower compartment (brain side) of HBMEC-BBB model: could reach the “brain side”
HBMEC monolayer; [2]
  Te % (SEM) 2 h: 56.8 (0.0) %
HBMEC monolayer; [3]
  Te % (SEM) 4 h: 61.9 (2.6) %
[1]; PAMPA
  Detection in the lower well of the PAMPA-BBB model: not detected in the lower well

## CC(C)=CCC/C(C)=C/CC/C(C)=C/CC/C=C(\C)CC/C=C(\C)CCC=C(C)C [Squalene]
HBMEC monolayer; PLE100 extract
  Detection in basolateral compartment (brain side) of HBMEC-BBB model: detected in the basolateral compartment
HBMEC monolayer; matrix OL-SS extract 40 µg/mL, 2 h incubation, n.d = not detected in lower compartment
  Te % (SEM) 2 h: 24.1 (1.4) %
HBMEC monolayer; matrix OL-SS extract 40 µg/mL, 4 h incubation, n.d = not detected in lower compartment
  Te % (SEM) 4 h: 33.2 (0.9) %
HBMEC monolayer; matrix PLE100 extract 15 µg/mL, 2 h incubation, n.d = not detected in lower compartment
  Te % (SEM) 2 h: 19.1 (1.4) %
HBMEC monolayer; matrix PLE100 extract 15 µg/mL, 4 h incubation, n.d = not detected in lower compartment
  Te % (SEM) 4 h: 47.6 (1.5) %
[1]; PLE100 extract compounds
  Crossing of the PAMPA-BBB system: could not cross

## COc1cc(/C=C/C(=O)O)ccc1O [Ferulic acid]
HBMEC monolayer
  Detection / transport to lower compartment (brain side) of HBMEC-BBB model: could reach the “brain side”
HBMEC monolayer; [3]
  Te % (SEM) 4 h: 9.1 (0.3) %
[1]; ASFE extract compounds
  Detection in the lower well of the PAMPA-BBB model: not detected in the lower well

## COc1cc(/C=C/C(=O)O)cc(OC)c1O [Sinapic acid]
HBMEC monolayer
  Te % (SEM) 2 h: 35.6 (2.0)/n.d %
  Te % (SEM) 4 h: 44.4 (3.2)/18.6 (0.5) %
  Detection / transport to lower compartment (brain side) of HBMEC-BBB model: could reach the “brain side”
HBMEC monolayer; [3]
  Te % (SEM) 4 h: 44.4 (3.2)/18.6 (0.5) %
[1]; ASFE extract compounds
  Detection in the lower well of the PAMPA-BBB model: not detected in the lower well
[1]; T33 extract compounds
  Crossing of the in vitro PAMPA-BBB: not capable of crossing

## C[C@@H]1CCCC2=CC[C@@H]3[C@@H](C3(C)C)[C@]21C [(-)-Aristolene]
HBMEC monolayer
  Te % (SEM) 2 h: 39.7 (0.4) %
  Te % (SEM) 4 h: 71.3 (1.6) %
HBMEC monolayer; PLE100 extract
  Detection in basolateral compartment (brain side) of HBMEC-BBB model: detected in the basolateral compartment
[1]; PLE100 extract compounds
  Crossing of the PAMPA-BBB system: could not cross

## CC(CC(=O)C[C@@H](C)[C@H]1C[C@H](O)[C@@]2(C)C3=C(C(=O)C[C@]12C)[C@@]1(C)CC[C@H](O)C(C)(C)[C@@H]1CC3)C(=O)O (stereo partly shown) [Ganolucidic acid B]
HBMEC monolayer
  Detection / transport to lower compartment (brain side) of HBMEC-BBB model: could reach the “brain side”
HBMEC monolayer; [2]
  Te % (SEM) 2 h: 28.4 (1.1) %
HBMEC monolayer; [3]
  Te % (SEM) 4 h: 28.6 (1.5) %
[1]; ASFE extract compounds
  Detection in the lower well of the PAMPA-BBB model: not detected in the lower well

## Farnesene
HBMEC monolayer
  Te % (SEM) 2 h: 46.0 (2.1) %
  Te % (SEM) 4 h: 50.9 (3.1) %

## C=CC(C)(O)CCC=C(C)CCC=C(C)C (mixture of isomers) [Nerolidol]
HBMEC monolayer; human
  Te % (SEM) 2 h: 30.1 (2.5) %
  Te % (SEM) 4 h: 59.8 (2.4) %

## Oc1ccc(/C=C/c2cc(O)cc3c2[C@@H](c2cc(O)cc(O)c2)[C@H](c2ccc(O)cc2)O3)cc1 [e-viniferin]
HBMEC monolayer
  Detection / transport to lower compartment (brain side) of HBMEC-BBB model: could reach the “brain side”
HBMEC monolayer; [2]
  Te % (SEM) 2 h: 39.2 (2.2) %
HBMEC monolayer; [3]
  Te % (SEM) 4 h: 45.9 (3.0) %
[1]; ASFE extract compounds
  Detection in the lower well of the PAMPA-BBB model: not detected in the lower well

## O=C(O)c1cc(O)c(O)c(O)c1 [Gallic acid]
HBMEC monolayer; human, 2 h, 30 µg/mL
  Te % (SEM) 2 h: 33.0 (1.9)/39.9 (1.4) %
HBMEC monolayer; human, 4 h, 30 µg/mL
  Te % (SEM) 4 h: 62.9 (0.3)/67.9(1.3) %
HBMEC monolayer; [2]
  Te % (SEM) 2 h: 33.0 (1.9)/39.9 (1.4) %
HBMEC monolayer; [3]
  Te % (SEM) 4 h: 62.9 (0.3)/67.9(1.3) %

## C=CC(=C)CC/C=C(\C)CC/C=C(\C)C=O [β-Sinensal]
HBMEC monolayer
  Te % (SEM) 2 h: 31.6 (1.2) %
  Te % (SEM) 4 h: 38.2 (2.4) %

## CC1(C)CC[C@]2(C)CC[C@]3(C)C(=CC[C@@H]4[C@@]5(C)CC[C@H](O)C(C)(C)[C@@H]5CC[C@]43C)[C@@H]2C1 [β-Amyrin]
HBMEC monolayer; OL-SS extract
  Detection in basolateral compartment (brain side) of HBMEC-BBB model: not detected
HBMEC monolayer; PLE100 extract
  Detection in basolateral compartment (brain side) of HBMEC-BBB model: not detected
[1]; PAMPA
  Crossing of the PAMPA-BBB system: not detected
  Detection in the PAMPA-BBB model: not detected

## COc1cc(C=O)cc(OC)c1O [Syringaldehyde]
HBMEC monolayer; human
  Te % (SEM) 2 h: 22.7 (1.5)/33.4 (2.2) %
  Te % (SEM) 4 h: 45.7 (3.2)/42.0 (1.4) %
HBMEC monolayer; [2]
  Te % (SEM) 2 h: 22.7 (1.5)/33.4 (2.2) %
HBMEC monolayer; [3]
  Te % (SEM) 4 h: 45.7 (3.2)/42.0 (1.4) %

## C=CC(C)(O)CCCC(C)CCCC(C)CCCC(C)C (stereo not shown) [Isophytol]
HBMEC monolayer
  Te % (SEM) 2 h: 15.6 (1.0) %
  Te % (SEM) 4 h: 58.0 (1.7) %

## O=C(O)[C@]1(O)C[C@@H](O)[C@@H](O)[C@H](O)C1 [Quinic acid]
HBMEC monolayer; human, 2 h, 30 µg/mL
  Te % (SEM) 2 h: 20.1 (1.6) %
HBMEC monolayer; human, 4 h, 30 µg/mL
  Te % (SEM) 4 h: 52.5 (1.4) %

## O=C(/C=C/c1ccc(O)c(O)c1)c1ccc(O)cc1O [Butein]
HBMEC monolayer; [2]
  Te % (SEM) 2 h: 27.5 (2.0) %
HBMEC monolayer; [3]
  Te % (SEM) 4 h: 36.3 (2.6) %

## O=C(/C=C/c1ccc(O)cc1)O[C@@H](C(=O)O)[C@@H](O)C(=O)O [Coutaric acid]
HBMEC monolayer
  Detection / transport to lower compartment (brain side) of HBMEC-BBB model: not detected in the lower compartment

## O=c1c(O[C@@H]2O[C@H](CO)[C@@H](O)[C@H](O)[C@H]2O)c(-c2ccc(O)c(O)c2)oc2cc(O)cc(O)c12 [Isoquercitrin]
HBMEC monolayer; human, 2 h, 30 µg/mL
  Te % (SEM) 2 h: 6.0 (0.2) %
HBMEC monolayer; human, 4 h, 30 µg/mL
  Te % (SEM) 4 h: 16.3 (1.3) %
[1]; PAMPA
  Crossing of the in vitro PAMPA-BBB: not capable of crossing

## C=C(C)[C@@H]1CCC2=CCC[C@@H](C)[C@]2(C)C1 [Valencene]
HBMEC monolayer
  Te % (SEM) 2 h: 51.9 (4.2) %

## O=C(O)C=Cc1ccc(O)cc1 [p-Coumaric acid]
HBMEC monolayer; human
  Te % (SEM) 2 h: 9.1 (0.6) %
  Te % (SEM) 4 h: 37.8 (2.5) %

## CCOC(=O)/C=C/c1ccc(O)c(O)c1 [Ethyl caffeate]
HBMEC monolayer
  Te % (SEM) 2 h: 33.4 (2.4) %
  Te % (SEM) 4 h: 35.7 (0.3) %

## Cc1cc(O)c(C)c2c1O[C@](C)(CCC[C@H](C)CCC[C@H](C)CCCC(C)C)CC2 [β-Tocopherol]
HBMEC monolayer
  Te % (SEM) 4 h: 15.2 (0.8) %
